Experimental data published in patent publication US9062043B2, “Fused tricyclic compounds as serine-threonine protein kinase and PARP modulators” (SENHWA BIOSCIENCES, INC., priority 2006, dated 2015).

Columns and labels:
[1] = Body weight of tumor-bearing xenograft animals; type: in vivo; conditions: BC-PC3 xenograft mice, IV and IP dosing
recombinant human PIM-1 = recombinant human PIM-1 (Homo sapiens (Human), UniProt P11309); assay: PIM-1 assay (cell-free, radiometric); type: biochemical
Description: The reactions are incubated for 10 min at 30° C., quenched with 100 ul of 0.75% Phosphoric acid, then transferred to and filtered through a Phosphocellulose filter plate (Millipore). After washing each well 5 times with 0.75% Phosphoric acid, Scintilation fluid (15 ul) is added to each well. The residual radioactivity is measured using a […].

protein kinases [2] = biological target: protein kinases (Homo sapiens, UniProt O14965); assay: Kinase inhibition, percentage of activity at 0.5 μM, standardized radiometric kinase assays; type: biochemical; conditions: Aurora-A(h);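 note: each kinase tested separately, with activity read as 33P-labelled substrate protein captured on filters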
protein kinases [3] = biological target: protein kinases (Homo sapiens, UniProt O15111); assay: as above; type: biochemical; conditions: IKKα(h)
protein kinases [4] = biological target: protein kinases (Homo sapiens, UniProt O43293); assay: as above; type: biochemical; conditions: ZIPK(h)
protein kinases [5] = biological target: protein kinases (Homo sapiens, UniProt P04049); assay: as above; type: biochemical; conditions: c-RAF(h)
protein kinases [6] = biological target: protein kinases (Homo sapiens, UniProt P06493); assay: as above; type: biochemical; conditions: CDK1/cyclinB(h)
protein kinases [7] = biological target: protein kinases (Homo sapiens, UniProt P07332); assay: as above; type: biochemical; conditions: Fes(h)
protein kinases [8] = biological target: protein kinases (Homo sapiens, UniProt P07333); assay: as above; type: biochemical; conditions: Fms(h)
protein kinases [9] = biological target: protein kinases (Homo sapiens, UniProt P07947); assay: as above; type: biochemical; conditions: Yes(h)
protein kinases [10] = biological target: protein kinases (Homo sapiens, UniProt P08069); assay: as above; type: biochemical; conditions: IGF-1R(h)
protein kinases [11] = biological target: protein kinases (Homo sapiens, UniProt P08922); assay: as above; type: biochemical; conditions: Ros(h)
protein kinases [12] = biological target: protein kinases (Homo sapiens, UniProt P10721); assay: as above; type: biochemical; conditions: cKit(h)
protein kinases [13] = biological target: protein kinases (Homo sapiens, UniProt P11362); assay: as above; type: biochemical; conditions: FGFR1(h)
protein kinases [14] = biological target: protein kinases (Homo sapiens, UniProt P12931); assay: as above; type: biochemical; conditions: Src(1-530)(h)
protein kinases [15] = biological target: protein kinases (Homo sapiens, UniProt P16234, D842V); assay: as above; type: biochemical; conditions: PDGFRα(D842V)(h)
protein kinases [16] = biological target: protein kinases (Homo sapiens, UniProt P16591); assay: as above; type: biochemical; conditions: Fer(h)
protein kinases [17] = biological target: protein kinases (Homo sapiens, UniProt P50613); assay: as above; type: biochemical; conditions: CDK7/cyclinH/MAT1(h)
protein kinases [18] = biological target: protein kinases (Homo sapiens, UniProt P51955); assay: as above; type: biochemical; conditions: NEK2(h)
protein kinases [19] = biological target: protein kinases (Homo sapiens, UniProt Q04912); assay: as above; type: biochemical; conditions: Ron(h)
protein kinases [20] = biological target: protein kinases (Homo sapiens, UniProt Q13177); assay: as above; type: biochemical; conditions: PAK2(h)
protein kinases [21] = biological target: protein kinases (Homo sapiens, UniProt Q15303); assay: as above; type: biochemical; conditions: ErbB4(h)
protein kinases [22] = biological target: protein kinases (Homo sapiens, UniProt Q15418); assay: as above; type: biochemical; conditions: Rsk1(h)
protein kinases [23] = biological target: protein kinases (Homo sapiens, UniProt Q9H422); assay: as above; type: biochemical; conditions: HIPK3(h)
protein kinases [24] = biological target: protein kinases (Homo sapiens, UniProt Q9UEE5); assay: as above; type: biochemical; conditions: DRAK1(h)

protein kinases (Homo sapiens, UniProt P10721), sequence (P10721 26-976 limits assumed): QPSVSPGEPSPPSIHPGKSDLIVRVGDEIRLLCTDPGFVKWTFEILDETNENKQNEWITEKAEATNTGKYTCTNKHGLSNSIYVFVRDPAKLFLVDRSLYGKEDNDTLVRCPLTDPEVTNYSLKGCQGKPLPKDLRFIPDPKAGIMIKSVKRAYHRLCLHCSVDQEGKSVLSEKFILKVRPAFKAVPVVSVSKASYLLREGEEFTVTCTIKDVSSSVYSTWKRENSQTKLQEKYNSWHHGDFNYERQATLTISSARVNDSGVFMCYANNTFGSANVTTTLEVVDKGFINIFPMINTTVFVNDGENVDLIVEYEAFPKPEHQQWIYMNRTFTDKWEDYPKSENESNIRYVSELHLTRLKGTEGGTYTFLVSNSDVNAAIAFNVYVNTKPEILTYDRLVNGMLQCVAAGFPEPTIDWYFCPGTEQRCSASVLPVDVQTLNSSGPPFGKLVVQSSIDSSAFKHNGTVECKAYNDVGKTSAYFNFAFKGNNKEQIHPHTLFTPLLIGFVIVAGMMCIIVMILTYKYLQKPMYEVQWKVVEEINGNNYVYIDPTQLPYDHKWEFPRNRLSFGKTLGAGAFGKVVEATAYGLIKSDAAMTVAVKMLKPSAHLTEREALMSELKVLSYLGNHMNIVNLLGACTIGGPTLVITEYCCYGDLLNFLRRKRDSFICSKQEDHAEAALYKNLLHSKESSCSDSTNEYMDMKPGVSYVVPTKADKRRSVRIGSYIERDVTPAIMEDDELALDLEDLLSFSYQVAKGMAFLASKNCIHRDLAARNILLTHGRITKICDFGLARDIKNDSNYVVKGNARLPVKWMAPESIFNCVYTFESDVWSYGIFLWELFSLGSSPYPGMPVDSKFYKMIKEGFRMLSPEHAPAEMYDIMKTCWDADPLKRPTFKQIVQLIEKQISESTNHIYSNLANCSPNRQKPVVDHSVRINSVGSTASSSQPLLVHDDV
protein kinases (Homo sapiens, UniProt P08069), sequence (P08069 31-736 limits assumed): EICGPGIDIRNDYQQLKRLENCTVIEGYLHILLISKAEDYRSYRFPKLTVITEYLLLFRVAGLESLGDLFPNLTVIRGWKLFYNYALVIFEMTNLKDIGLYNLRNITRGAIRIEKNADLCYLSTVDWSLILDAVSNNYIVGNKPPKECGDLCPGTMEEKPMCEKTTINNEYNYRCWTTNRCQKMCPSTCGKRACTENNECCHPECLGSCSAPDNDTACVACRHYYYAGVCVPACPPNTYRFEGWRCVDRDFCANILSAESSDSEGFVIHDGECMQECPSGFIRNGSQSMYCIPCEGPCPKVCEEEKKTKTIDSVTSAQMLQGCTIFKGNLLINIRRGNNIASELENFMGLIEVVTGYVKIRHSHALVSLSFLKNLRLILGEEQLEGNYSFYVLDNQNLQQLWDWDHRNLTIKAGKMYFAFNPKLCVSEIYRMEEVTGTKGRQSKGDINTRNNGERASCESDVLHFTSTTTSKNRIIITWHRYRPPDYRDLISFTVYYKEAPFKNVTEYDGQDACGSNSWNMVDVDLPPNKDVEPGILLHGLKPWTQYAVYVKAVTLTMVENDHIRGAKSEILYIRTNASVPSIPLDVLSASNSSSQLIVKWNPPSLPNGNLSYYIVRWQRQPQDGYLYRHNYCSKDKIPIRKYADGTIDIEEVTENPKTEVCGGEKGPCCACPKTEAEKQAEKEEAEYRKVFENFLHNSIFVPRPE
protein kinases (Homo sapiens, UniProt P08069), sequence (P08069 741-1367 limits assumed): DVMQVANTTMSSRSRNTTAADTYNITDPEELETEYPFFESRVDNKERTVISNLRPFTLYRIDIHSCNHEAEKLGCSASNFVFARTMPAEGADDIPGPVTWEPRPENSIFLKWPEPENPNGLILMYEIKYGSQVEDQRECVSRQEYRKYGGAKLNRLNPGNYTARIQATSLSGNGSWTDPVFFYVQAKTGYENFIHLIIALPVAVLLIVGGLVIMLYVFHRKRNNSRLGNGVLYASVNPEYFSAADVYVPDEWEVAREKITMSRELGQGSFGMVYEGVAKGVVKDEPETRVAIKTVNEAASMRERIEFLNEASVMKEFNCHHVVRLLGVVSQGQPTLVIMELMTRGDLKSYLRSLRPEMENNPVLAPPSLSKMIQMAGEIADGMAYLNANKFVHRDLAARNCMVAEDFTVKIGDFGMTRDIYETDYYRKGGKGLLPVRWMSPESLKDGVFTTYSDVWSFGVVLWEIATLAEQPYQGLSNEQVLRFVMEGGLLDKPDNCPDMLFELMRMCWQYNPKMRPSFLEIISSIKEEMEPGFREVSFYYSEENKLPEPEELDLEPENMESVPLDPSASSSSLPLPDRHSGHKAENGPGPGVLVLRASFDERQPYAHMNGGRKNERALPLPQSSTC
protein kinases (Homo sapiens, UniProt Q13177), sequence (Q13177 2-524 limits assumed): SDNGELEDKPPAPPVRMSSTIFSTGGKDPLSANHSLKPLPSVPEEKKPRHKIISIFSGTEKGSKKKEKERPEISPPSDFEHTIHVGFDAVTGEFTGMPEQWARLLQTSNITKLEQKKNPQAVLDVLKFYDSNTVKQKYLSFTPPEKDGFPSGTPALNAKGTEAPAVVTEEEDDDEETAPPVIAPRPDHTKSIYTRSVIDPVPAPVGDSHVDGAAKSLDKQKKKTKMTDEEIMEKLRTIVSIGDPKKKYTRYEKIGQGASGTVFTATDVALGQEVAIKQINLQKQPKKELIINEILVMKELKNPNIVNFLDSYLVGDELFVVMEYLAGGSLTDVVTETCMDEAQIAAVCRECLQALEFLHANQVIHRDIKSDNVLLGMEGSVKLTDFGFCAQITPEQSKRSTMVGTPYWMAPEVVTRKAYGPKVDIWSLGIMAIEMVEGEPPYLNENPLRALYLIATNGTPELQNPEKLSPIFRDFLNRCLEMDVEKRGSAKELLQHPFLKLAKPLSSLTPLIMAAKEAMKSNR
protein kinases (Homo sapiens, UniProt P12931), sequence (P12931 2-536 limits assumed): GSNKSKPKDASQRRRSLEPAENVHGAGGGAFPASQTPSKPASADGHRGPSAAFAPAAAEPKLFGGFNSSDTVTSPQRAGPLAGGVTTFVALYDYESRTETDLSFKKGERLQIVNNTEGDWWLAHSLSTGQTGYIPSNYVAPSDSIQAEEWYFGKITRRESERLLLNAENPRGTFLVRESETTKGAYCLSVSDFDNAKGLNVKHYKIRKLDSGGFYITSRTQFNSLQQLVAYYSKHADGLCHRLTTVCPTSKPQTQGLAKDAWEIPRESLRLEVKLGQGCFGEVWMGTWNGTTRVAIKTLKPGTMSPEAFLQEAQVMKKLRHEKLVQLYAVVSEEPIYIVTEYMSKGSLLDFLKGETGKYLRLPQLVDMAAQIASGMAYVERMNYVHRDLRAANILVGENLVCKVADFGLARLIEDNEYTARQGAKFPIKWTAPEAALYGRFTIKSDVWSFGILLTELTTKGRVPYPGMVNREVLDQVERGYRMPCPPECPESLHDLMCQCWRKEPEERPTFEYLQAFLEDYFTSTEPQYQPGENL
recombinant human PIM-1, sequence (P11309 whole entry): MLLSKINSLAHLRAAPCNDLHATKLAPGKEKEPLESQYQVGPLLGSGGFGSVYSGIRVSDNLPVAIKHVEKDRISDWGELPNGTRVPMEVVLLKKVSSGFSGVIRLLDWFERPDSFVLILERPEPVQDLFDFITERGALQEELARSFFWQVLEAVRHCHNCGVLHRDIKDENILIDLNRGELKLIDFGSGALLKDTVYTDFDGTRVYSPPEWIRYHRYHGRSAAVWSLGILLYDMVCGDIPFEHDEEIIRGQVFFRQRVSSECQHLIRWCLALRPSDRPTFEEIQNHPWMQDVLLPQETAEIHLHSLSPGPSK
protein kinases (Homo sapiens, UniProt P07333), sequence (P07333 20-972 limits assumed): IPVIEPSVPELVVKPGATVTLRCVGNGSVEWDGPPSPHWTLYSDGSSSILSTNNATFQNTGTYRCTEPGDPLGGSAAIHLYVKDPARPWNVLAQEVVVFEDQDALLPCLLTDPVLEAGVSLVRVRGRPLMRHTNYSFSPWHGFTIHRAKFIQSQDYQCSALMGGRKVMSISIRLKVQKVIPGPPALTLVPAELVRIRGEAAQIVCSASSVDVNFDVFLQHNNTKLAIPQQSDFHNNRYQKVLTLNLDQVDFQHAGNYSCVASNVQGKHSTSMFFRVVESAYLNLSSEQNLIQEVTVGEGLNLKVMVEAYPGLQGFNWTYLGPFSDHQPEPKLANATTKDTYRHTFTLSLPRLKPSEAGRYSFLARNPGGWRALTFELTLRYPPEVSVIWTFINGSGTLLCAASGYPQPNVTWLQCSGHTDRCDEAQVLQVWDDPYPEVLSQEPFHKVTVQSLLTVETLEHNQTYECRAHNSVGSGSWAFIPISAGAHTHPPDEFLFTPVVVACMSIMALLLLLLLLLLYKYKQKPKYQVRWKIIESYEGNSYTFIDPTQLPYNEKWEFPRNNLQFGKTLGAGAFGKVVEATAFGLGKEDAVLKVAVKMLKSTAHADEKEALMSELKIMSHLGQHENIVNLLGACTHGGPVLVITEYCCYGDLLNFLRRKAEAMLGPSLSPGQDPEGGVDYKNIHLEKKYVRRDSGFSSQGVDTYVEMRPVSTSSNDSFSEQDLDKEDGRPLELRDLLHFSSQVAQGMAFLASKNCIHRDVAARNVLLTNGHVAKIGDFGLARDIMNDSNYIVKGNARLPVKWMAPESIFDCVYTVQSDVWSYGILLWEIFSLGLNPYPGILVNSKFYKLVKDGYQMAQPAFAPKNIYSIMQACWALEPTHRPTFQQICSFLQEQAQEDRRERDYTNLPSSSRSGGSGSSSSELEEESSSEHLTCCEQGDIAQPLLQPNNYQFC
protein kinases (Homo sapiens, UniProt P50613), sequence (P50613 2-346 limits assumed): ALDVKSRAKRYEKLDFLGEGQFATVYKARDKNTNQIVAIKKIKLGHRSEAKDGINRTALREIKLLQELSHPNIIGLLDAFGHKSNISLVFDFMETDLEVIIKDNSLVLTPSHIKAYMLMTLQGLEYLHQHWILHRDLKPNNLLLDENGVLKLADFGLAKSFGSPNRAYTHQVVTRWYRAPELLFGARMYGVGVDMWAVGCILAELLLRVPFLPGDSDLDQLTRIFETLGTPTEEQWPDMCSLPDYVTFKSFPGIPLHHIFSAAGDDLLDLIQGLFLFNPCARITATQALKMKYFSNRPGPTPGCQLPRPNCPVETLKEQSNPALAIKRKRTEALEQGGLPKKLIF

## C#Cc1cccc(Nc2nc3cc(C(=O)O)ccc3c3cncnc23)c1 [compound A2]
[1]
  Body weight (FIG. 4B): not significantly altering body weight
Recombinant human PIM-1
  IC50: 189 nM
Protein kinases [2]
  activity at 0.5 µM: 94%
Protein kinases [3]
  activity at 0.5 µM: 101%
Protein kinases [4]
  activity at 0.5 µM: 12%
Protein kinases [5]
  activity at 0.5 µM: 69%
Protein kinases [6]
  activity at 0.5 µM: 52%
Protein kinases [7]
  activity at 0.5 µM: 139%
Protein kinases [8]
  activity at 0.5 µM: 174%
Protein kinases [9]
  activity at 0.5 µM: 109%
Protein kinases [10]
  activity at 0.5 µM: 73%
Protein kinases [11]
  activity at 0.5 µM: 110%
Protein kinases [12]
  activity at 0.5 µM: 114%
Protein kinases [13]
  activity at 0.5 µM: 103%
Protein kinases [14]
  activity at 0.5 µM: 101%
Protein kinases [15]
  activity at 0.5 µM: 109%
Protein kinases [16]
  activity at 0.5 µM: 103%
Protein kinases [17]
  activity at 0.5 µM: 77%
Protein kinases [18]
  activity at 0.5 µM: 77%
Protein kinases [19]
  activity at 0.5 µM: 106%
Protein kinases [20]
  activity at 0.5 µM: 112%
Protein kinases [21]
  activity at 0.5 µM: 126%
Protein kinases [22]
  activity at 0.5 µM: 78%
Protein kinases [23]
  activity at 0.5 µM: 10%
Protein kinases [24]
  activity at 0.5 µM: 62%
